Data reported in patent US6638523B1, “Method of treating ulcers” (Nagase & Company, Ltd., priority 1999, dated 2003).

Tests used:
[1] = tested on: ulcers developed in the stomach; assay: Ethanol-induced gastric ulcer in rats; type: in vivo, Wistar male rats; conditions: for ED50: Rattus norvegicus, oral administration 30 min before 1 ml ethanol (99.5%), total ulcer length after 1 h, read-out: ED50 (anti-ulcer action); for anti-ulcer action: oral, carnosic acid 1, 5, 25 mg/kg, carnosol 2.5, 10, 25 mg/kg, ethanol ulcer, FIG. 1 and 2
Procedure: To Wistar male rats (5 rats per group) of 180-200 g body weight fasted for 24 hours before the start of a test, carnosic acid obtained in Example 1 was orally administered in dose levels of 1, 5 and 25 mg per kg body weight, after suspending it in water. Similarly, carnosol obtained in Example 1 was orally administered in dose levels of 2.5, 10 and 25 mg per kg body weight, after suspending it in water. After 30 minutes of the administration, 1 ml of ethanol (99.5%) was orally administered to each rat. After one hour of the ethanol administration, laparotomy was carried out and the lengths of all ulcers developed in the stomach were measured and added up. Similar measurements were carried out on the rats of the control group which received ethanol without receiving the above compounds and the result obtained was compared with the above results.

[2] = tested on: ulcers developed in the stomach; conditions: well known anti-ulcer compound, comparison value; cited from earlier work

CC(C)c1cc2c(c(O)c1O)[C@@]13CCCC(C)(C)[C@@H]1C[C@@H]2OC3=O [carnosol]
ED50 [1]: 9.6 mg/kg | anti-ulcer action [1]: potent anti-ulcer action

NC(N)=Nc1nc(CSCCN/C=N/S(=O)(=O)c2ccc(Br)cc2)cs1 [ebrotidine]
ED50 (anti-ulcer action), comparison compound [2]: 26.54 mg/kg

CC(C)c1cc2c(c(O)c1O)[C@@]1(C(=O)O)CCCC(C)(C)[C@@H]1CC2 [carnosic acid]
ED50 [1]: 3.1 mg/kg | anti-ulcer action [1]: potent anti-ulcer action
